Reference: patent publication US9308253B2, “Cancer immunotherapy” (The Johns Hopkins University, priority 2011, dated 2016)

How the values were obtained:
TLR4 = settings: cited from earlier work
B16 melanoma = test: Tumor treatment assay, palpable B16 model; type: in vivo, C57BL/6 mice; settings: palpable B16, single subcutaneous treatment in contralateral limb
Experimental: IDC-1005 was incubated with irradiated GVAX cells at 4 deg C. for 0.5-2, hours prior to inoculation. GVAX formulated with IDC-1005 is labeled as TEGVAX.
Tumor treatment assay: C57BL/6 mice were injected with 1-5×10^4 B16 in the footpads. Once palpable tumor developed (5-10 days), 100 μl of 10^6 B16 GVAX formulated with or without IDC-1005 were injected subcutaneously into the contralateral limb. The control groups were injected with vehicle. For all these experiments, 10 mice were used per group. […] For all the vaccines, GM-CSF was titered to ensure that GM-CSF expression level ranged from 50-500 ng/10^6 Cells/24 hours. Tumor was measured daily.

[1] = human, in vivo; cited from earlier work

CCCCCCCCCCCCCC(=O)O[C@H](CCCCCCCCCCC)CC(=O)O[C@@H]1[C@@H](NC(=O)C[C@H](CCCCCCCCCCC)OC(=O)CCCCCCCCCCCCC)[C@H](OC[C@H]2O[C@H](O)[C@H](NC(=O)C[C@H](O)CCCCCCCCCCC)[C@@H](OC(=O)C[C@H](O)CCCCCCCCCCC)[C@@H]2O)O[C@H](CO)[C@H]1OP(=O)(O)O [GLA, glucopyranosyl lipid A]
TH1 type cytokines on activation of dendritic cells (TLR4; murine and human dendritic cells, in vivo and in vitro, versus MPL): more potent in terms of increasing multiple TH1 type cytokines
TLR4 agonist strength (TLR4; versus monophosphoryl lipid A): stronger TLR4 agonist than the monophosphyl lipid A
tumor growth rate / in vivo anti-tumor response (B16 melanoma): no in vivo anti-tumor effects

CCOCc1nc2c(N)nc3ccccc3c2n1CC(C)(C)O [R848, resiquimod]
safety / toxicity in patients [1]: passed phase 1 trials for safety

ipilimumab: anti-CTLA-4 antibody
safety / toxicity in patients [1]: grade 3-4 toxicity
